# Laboratory results reported in article PMC5114727, “Biological characterization of chemically diverse compounds targeting the Plasmodium falciparum coenzyme A synthesis pathway” (Parasites & Vectors, 2016).
# Values joined by “and” are separate entries in the source; they are usually repeats but may differ in a detail not shown here. Equal values may be shown once.
# What was measured:
# T. cruzi trypomastigotes = assay: T. cruzi trypomastigote PrestoBlue assay; format: cell-based, Trypanosoma cruzi; settings: for T. cruzi trypomastigote percent inhibition at the highest concentration tested: 40 µM, given if an IC50 could not be calculated
# Protocol: Compound activity against T. cruzi trypomastigotes was assessed in two independent experiments, without technical repeats, at a final highest compound concentration of 40 μM in concentration-response PrestoBlue assay, as previously described.
# [1] = tested on: panel of human cancer cell lines (MCF7, MDA-MB-231, PC-3); assay: Cytotoxicity across the panel of cell lines; format: cell-based
# Description: (§1) An initial indication of compound selectivity over human cells had previously been obtained through comparison of the compounds’ IC50 values against P. falciparum asexual stages and HEK293 [22]. In the present study, the selectivity investigation was extended to a small panel of human cancer cell lines, namely the estrogen receptor (ER)-positive breast cancer cell line MCF7, the ER-negative MDA-MB-231, as well as the human prostate cancer line, PC-3. Additionally, the cytotoxic effects on mouse embryonic fibroblast cell line 3T3, which serves as the host cell for T. cruzi in our image-based amastigote assay, were investigated.
# (§2) Cytotoxicity of the compounds was assessed against a panel of human cancer cell lines, namely the estrogen receptor (ER)-positive breast cancer cell line MCF7, the ER-negative MDA-MB-231 and the prostate cancer line PC-3. All the cell lines were purchased from ATCC and maintained as previously described. Two biological replicates consisting of two technical replicates each were performed to generate concentration response curves (CRC) with a final highest concentration of 40 μM. A resazurin-based assay was utilized to determine cell viability as described earlier. Additionally, the cytotoxic effects on the mouse embryonic fibroblast cell line 3T3 were assessed as part of the Trypanosoma cruzi amastigote image-based assay as outlined in [35].
# T. cruzi amastigotes = assay: T. cruzi amastigote image-based assay in 3T3 host cells; format: cell-based, Trypanosoma cruzi; settings: 40 µM per footnote; given if an IC50 could not be calculated
# Protocol: The next step taken was to determine whether the activity of the compounds was confined to P. falciparum, or whether it extended to other protozoan parasites. Compound activity against two members of another clinically important group of parasites, the kinetoplastids T. cruzi and T. b. brucei was determined. The sensitive high content imaging assay used to determine compound activity against T. cruzi assesses the intracellular amastigote life form of the parasite in the 3T3 host cell. It is important to simultaneously assess compound activity against 3T3 cells to determine potential cytotoxicity against the host cell line, since this could result in a false positive outcome. The T. b. brucei assay employs the REDOX indicator Alamar Blue to assess viability, which was developed into a 384-well assay format.
# Compound activity against T. cruzi amastigotes was assessed in an image-based assay in single point concentration-response and three biological replicates, at a final highest compound concentration of […], as previously described.
# [2] = tested on: P. falciparum asexual blood stage; settings: cited from earlier work; for IC50: as previously reported, read-out: Asexual P. falciparum IC50 ± SEM
# [3] = tested on: early stage gametocytes (stage I to IIb/III) of P. falciparum line NF54^Pfs16; settings: cited from earlier work
# [4] = molecular target: early stage gametocytes (stage I to IIb/III) of P. falciparum line NF54^Pfs16; assay: Gametocyte luciferase assay, early stage; format: cell-based, Plasmodium falciparum; settings: highest concentration 40 μM; read-out: Early stage gametocyte IC50 ± SEM
# Description: (§3) To investigate a potential role of CoA biosynthesis for host to vector transmission of the malaria parasite, we investigated the activity of our compounds on P. falciparum gametocytes, the sexual stages of P. falciparum, essential for malaria transmission. […] Parasite stage-specificity and gametocytocidal activity of the compounds was therefore investigated, utilizing a luciferase-based approach on early stage (development from stage I to IIb/III [30]) and late stage (IV to V [51]) gametocytes.
# (§4) Induction of P. falciparum gametocyte differentiation and gametocyte culturing were performed as previously described. Compound activity against early stage gametocytes (covering the development from stage I to IIb/III) and late stage gametocytes (stage IV to V) of the recombinant P. falciparum line NF54^Pfs16 was assessed in concentration-response assays, in two experimental replicates consisting of two technical repeats each, at a highest concentration of 40 μM, as described earlier.
# [5] = tested on: P. falciparum asexual blood stages (PfAS); assay: Chemical rescue with CoA pathway intermediates, asexual stages; format: cell-based, Plasmodium falciparum; settings: for Percent rescue ± SEM by CoA, PfAS: CoA 0.8 mM; for Percent rescue ± SEM by CoA, PfAS / Percent rescue ± SEM by dephospho CoA, PfAS / Percent rescue ± SEM by pantethine, PfAS / Percent rescue ± SEM by pantothenate, PfAS: inhibitor at IC80; for Percent rescue ± SEM by dephospho CoA, PfAS: dP-CoA 0.8 mM; for Percent rescue ± SEM by pantethine, PfAS: pantethine 125 μM; for Percent rescue ± SEM by pantothenate, PfAS: pantothenate 300 μM
# Protocol: (§5) Pantothenate is the first substrate of the pathway (Fig. 1) and its addition was intended to rescue the action of possible competitive inhibitors of the first enzyme, PanK. […] It is not known, whether P. falciparum is capable of pantetheine phosphorylation for utilization in CoA synthesis. […] Finally, the rescue ability of dP-CoA, the final substrate of CoA synthesis, was tested. […] Inhibitors competing with dP-CoA for DPCK binding were expected to be displaced, thereby rescuing parasite survival, by dP-CoA supplementation in a concentration dependent manner.
# (§6) An imaging based assay was utilised to assess the chemical rescue on asexual stages of P. falciparum as described previously. All the pathway intermediates were purchased from Sigma. CoA and dP-CoA were dissolved in sterile distilled water to obtain a 20 mM stock solution, which was then aliquoted and stored at -20 °C until use. […] Each pathway intermediate was tested on the parasites at a range of concentrations to assess potential toxicity. […] On early stage P. falciparum gametocytes the same concentrations as for CoA were tested for dP-CoA; against asexual blood stage P. falciparum, late stage gametocytes and Trypanosoma b. brucei five dP-CoA concentrations were tested (2 mM, 1.5 mM, 1 mM, 0.75 mM and 0.5 mM).
# (§7) The same concentration ranges of the CoA pathway intermediates were supplemented to parasites treated with the experimental compounds. The inhibitors were used at their respective final assay concentration of IC80 (as determined previously in the corresponding P. falciparum development stage or T. b. brucei assay). […] The negative control used in each assay was 0.4% DMSO, whilst the positive control was 2 μM artemisinin for asexual P. falciparum blood stages and 5 μM puromycin for all gametocyte stages and T. b. brucei. The percentage growth of the respective parasites following compound treatment was determined using Microsoft ® Excel 2010, and compared with their controls. All rescue assays were performed as two independent experiments each in duplicate point.
# [6] = tested on: T. b. brucei trypomastigote; assay: T. b. brucei resazurin (Alamar Blue) viability assay; format: cell-based, Trypanosoma brucei brucei; settings: for IC50: highest concentration 40 μM, read-out: T. b. brucei trypomastigote IC50 ± SEM
# Protocol: Compound activity against two members of another clinically important group of parasites, the kinetoplastids T. cruzi and T. b. brucei was determined. The sensitive high content imaging assay used to determine compound activity against T. cruzi assesses the intracellular amastigote life form of the parasite in the 3T3 host cell. […] The T. b. brucei assay employs the REDOX indicator Alamar Blue to assess viability, which was developed into a 384-well assay format.
# Compound activity against T. b. brucei was assessed in a resazurin-based viability assay in concentration-response assays, without technical repeats, in two experimental replicates at a highest concentration of 40 μM, as previously described.
# HEK293 cells = settings: as previously reported; read-out: HEK293 cytotoxicity IC50 ± SEM; cited from earlier work
# PC-3 cells = assay: Resazurin cytotoxicity assay, PC-3; format: cell-based, human
# Description: as §1, §2
# MCF7 cells = assay: Resazurin cytotoxicity assay, MCF7; format: cell-based, human
# Description: as §1, §2
# [7] = molecular target: late stage gametocytes (stage IV to V) of P. falciparum line NF54^Pfs16; assay: Gametocyte luciferase assay, late stage; format: cell-based, Plasmodium falciparum
# Description: as §3, §4
# MDA-MB-231 cells = assay: Resazurin cytotoxicity assay, MDA-MB-231; format: cell-based, human
# Description: as §1, §2
# [8] = tested on: P. falciparum developmental stages; assay: Activity across all P. falciparum life-cycle stages tested (asexual, early and late gametocytes); format: cell-based, Plasmodium falciparum; settings: early and late stage gametocytes
# Protocol: as §4
# 3T3 cells = assay: 3T3 host cell cytotoxicity (part of T. cruzi amastigote image-based assay); parameters: species or system mouse; settings: bound = highest concentration with < 50 % inhibition; read-out: 3T3 cytotoxicity IC50 ± SEM
# Description: as §1, §2
# [9] = tested on: P. falciparum asexual blood stages / early gametocytes; assay: Chemical rescue of MMV000570 (Table S3B; PfAS and PfEG replicates, columns not assignable); format: cell-based, Plasmodium falciparum; settings: stage and replicate not assignable
# Protocol: as §6
# as §7, with “compounds.” for “compounds. The inhibitors were used at their respective final assay concentration of IC80 (as determined previously in the corresponding P. falciparum development stage or T. b. brucei assay).”
# [10] = tested on: P. falciparum early stage gametocytes (PfEG, stage I-III); assay: Chemical rescue with CoA pathway intermediates, early stage gametocytes; format: cell-based, Plasmodium falciparum; settings: inhibitor at IC80
# Protocol: as §5, §6
# as §7, with “compounds.” for “compounds. The inhibitors were used at their respective final assay concentration of IC80 (as determined previously in the corresponding P. falciparum development stage or T. b. brucei assay).”
# [11] = 40 µM, given if an IC50 could not be calculated
structure (smiles),measurement,setting,value
OC1CCCCC1C1(NC(=S)Nc2ccccc2)CCCCC1 (centres unmarked) [MMV665980],IC50,"T. cruzi trypomastigotes; highest concentration 40 μM, read-out: T. cruzi trypomastigote IC50 ± SEM",4.42 ± 0.89 µM
same,cytotoxicity against any of the cell lines investigated (in words),[1]; up to the highest tested concentration of 40 μM,no or only negligible cytotoxicity
same,T. cruzi amastigote percent inhibition at the highest concentration tested,T. cruzi amastigotes,70%
same,IC50,[2],6.31 ± 1.06 µM
same,gametocytocidal activity in earlier screen versus hit threshold (in words),"[3]; screening concentration 5 μM, threshold 50% activity",lower than the hit threshold
same,IC50,[4],7.54 ± 0.39 µM
same,"Percent rescue ± SEM by CoA, PfAS",[5],54.4 ± 2.5%
same,"Percent rescue ± SEM by dephospho CoA, PfAS",[5],46.0 ± 2.6%
same,"Percent rescue ± SEM by pantethine, PfAS",[5],No
same,"Percent rescue ± SEM by pantothenate, PfAS",[5],No
same,T. b. brucei trypomastigote percent inhibition at the highest concentration tested,[6]; [11],100%
same,IC50,HEK293 cells,> 40 µM
same,IC50,"PC-3 cells; highest concentration 40 μM, bound = highest concentration with < 50 % inhibition, read-out: PC-3 cytotoxicity IC50 ± SEM",> 20 µM
same,IC50,"MCF7 cells; highest concentration 40 μM, bound = highest concentration with < 50 % inhibition, read-out: MCF7 cytotoxicity IC50 ± SEM",> 40 µM
same,IC50,"[7]; highest concentration 40 μM, read-out: Late stage gametocyte IC50 ± SEM",4.15 ± 0.56 µM
same,IC50,"MDA-MB-231 cells; highest concentration 40 μM, bound = highest concentration with < 50 % inhibition, read-out: MDA-MB-231 cytotoxicity IC50 ± SEM",> 40 µM
same,activity against all P. falciparum development stages tested (in words),[8],"moderate, single digit micromolar activity"
same,IC50,3T3 cells,> 40 µM
CCc1ccc(Nc2cc(C)c3ccc(O)cc3n2)cc1.Cl [MMV000570],T. cruzi trypomastigote percent inhibition at the highest concentration tested,T. cruzi trypomastigotes,100%
same,T. cruzi amastigote percent inhibition at the highest concentration tested,T. cruzi amastigotes,96%
same,Rescue of growth inhibitory effect by any of the intermediates (in words),[5]; compound at 1 μM,could not effectively be rescued by any of the intermediates
same,IC50,[6],5.85 ± 1.11 µM
same,IC50,HEK293 cells,~40 µM
same,PC-3 percent inhibition at the highest concentration tested,PC-3 cells; 40 µM,98%
same,MCF7 percent inhibition at the highest concentration tested,MCF7 cells; 40 µM,96%
same,MDA-MB-231 percent inhibition at the highest concentration tested,MDA-MB-231 cells; 40 µM,90%
same,"percent rescue averages ± SEM by CoA, tested at IC80 concentration",[9],6.4% and 8.1% and -1.6% and 26.7%
same,"percent rescue averages ± SEM by pantothenate, tested at IC50 concentration",[9],3.5% and -0.6% and 4.3% and 28.6%
same,"percent rescue averages ± SEM by pantothenate, tested at IC80 concentration",[9],3.1% and 2.2% and 2.3% and 5.2%
same,IC50,3T3 cells,> 40 µM
COc1ccc2c(=O)cc(C(Cl)(Cl)Cl)oc2c1 [MMV665820],T. cruzi trypomastigote percent inhibition at the highest concentration tested,T. cruzi trypomastigotes,100%
same,IC50,"[1]; MCF7, MDA-MB-231, PC-3, read-out: IC50 range against the cancer cell lines",0.27 to 0.43 µM
same,T. cruzi amastigote percent inhibition at the highest concentration tested,T. cruzi amastigotes,62%
same,IC50,[2],0.58 ± 0.08 µM
same,plateau of P. falciparum growth inhibition,[2]; asexual blood stage,100%
same,inhibition against early stage gametocytes in earlier dose-response,[3]; 1 μM,about 50%
same,IC50,[4],0.44 ± 0.03 µM
same,"Percent rescue ± SEM by CoA, PfAS",[5],113.3 ± 12.3%
same,"Percent rescue ± SEM by dephospho CoA, PfAS",[5],88.6 ± 18.3%
same,"Percent rescue ± SEM by pantethine, PfAS",[5],No
same,"Percent rescue ± SEM by pantothenate, PfAS",[5],No
same,IC50,[6],2.5 µM
same,"Percent rescue ± SEM by pantethine, PfEG",[10]; pantethine 10 mM,No
same,"Percent rescue ± SEM by pantothenate, PfEG",[10]; pantothenate 625 μM,No
same,"inhibition plateau level of the concentration-response curve, PC-3",PC-3 cells,80%
same,Late stage gametocyte percent inhibition at the highest concentration tested,[7]; [11],69%
same,"inhibition plateau level of the concentration-response curve, MDA-MB-231",MDA-MB-231 cells,43%
